Measurements reported in patent US20210321649A1, “METHOD FOR DETECTING MISHANDLING AND MISUSE OF FOOD PRODUCTS” (SECURITY MATTERS LTD., priority 2016, published 2021).

Assay: Solubility of marking compounds in ethanol and water (Table 1)
Conditions: for Solubility in Ethanol: solvent ethanol; for Solubility in water: solvent water

Substance | Solubility in Ethanol | Solubility in water
Copper complexes chlorophylls [Copper complexes chlorophylls (E141)] | Soluble | Insoluble
Vitamin B12 | Soluble | Soluble
